The results in this text go back to PubChem BioAssay (NCI).

What all share (experiment): NCI-60 cell line screen, 48 h
Test [1] concerns M14 melanoma.
Test [2] concerns HT29 colon.
Test [3] concerns SNB-75 CNS.
The subject of test [4] is SK-MEL-28 melanoma.
Test [5] relates to HOP-62 NSCLC.
The test system of test [6] is SR leukemia.
Test [7] deals with UACC-257 melanoma.
Test [8] has as its system MDA-MB-231 breast.
In test [9] the test system is NCI/ADR-RES ovarian.

Where “and” joins values, the source holds several entries; their conditions need not be identical. Identical values can stand only once.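 Exposure lasted 48 hours, with cells grown in 96-well plates and compounds tested at five concentrations. The concentration for 50% growth inhibition is given as GI50. TGI denotes the concentration required for complete inhibition of growth.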

In the case of `OCCCc1cnco1`, the TGI in test [1], in test [2], in [3], in [4], in test [5] and in [6] was more than 100 µM each time. In addition, the TGI in test [7] is more than 100 µM.

Regarding `CC(C)(CN1CCCCC1)C(=O)CC(SCCN)c1ccc(Cl)cc1` (stereo unspecified), the TGI in test [1] came to 3.63 µM; in [2], 5.07 µM; in [3] it was 5.59 µM; in [4], 13 µM; in test [5], 12.8 µM; in test [7] it was 7.41 µM.

With `O=[N+]([O-])c1ccc(/C(Cl)=C/c2ccc(/C=C(\Cl)c3ccc([N+](=O)[O-])cc3[N+](=O)[O-])cc2)c([N+](=O)[O-])c1`, the TGI in test [1], in [2], in test [3], in test [4], in [5] and in test [6] was more than 100 µM in each case. The same molecule registered a TGI in test [7] of more than 100 µM.

For the molecule `C#CCn1c(=O)c2cccnc2n(CC#C)c1=O`, the TGI in test [1], in test [2], in test [3], in [4], in test [5] and in [6] was more than 100 µM throughout. In [7], this molecule registered a TGI of more than 100 µM.

For the molecule `C=C1C(=O)c2cc3c(cc2C(c2cc(OC)c(OC)c(OC)c2)[C@@H]1C(=O)O)OCO3` (stereo partly specified), the TGI in [1] is more than 100 µM; in test [2], more than 100 µM; in [3], 61.1 µM; in test [4] it was more than 100 µM; in test [7], more than 100 µM.

On to `CC(=O)SC(SC(C)=O)SC(C)=O`, for which the TGI in test [1], in test [2], in test [3], in test [4], in [5] and in test [7] was more than 100 µM in each case.

`CCc1cccc(CC)c1NC(=O)CC1SC(N)=NC1=O` (stereo unspecified): the TGI in [1], in [2], in [3], in test [4], in test [5] and in test [6] was more than 100 µM throughout. The same molecule displayed a TGI in test [7] of more than 100 µM.

For `O=c1nc(N2CCCC2)nc(N2CCCC2)s1`, the TGI in test [1], in test [2], in [3], in [4], in test [5] and in test [6] was more than 100 µM each time. Also, in test [7], the TGI was more than 100 µM.

Turning to `Cc1ccc(NC(=O)/C(=N\NC(N)=S)C(C#N)c2ccccc2C)cc1C` (stereo unspecified), the TGI in test [1], in test [2], in [3], in test [4], in [5] and in test [6] was more than 100 µM in each case. In test [7], this molecule registered a TGI of more than 100 µM.

For `CCc1nc2ccccc2c(=O)n1/N=C(\N=Nc1ccc(Cl)cc1)c1ccccc1`, the TGI was more than 100 µM in [1]; 36.9 µM in test [2]; 40.1 µM in [3]; more than 100 µM in test [4]; 69.4 µM in test [5]; 59.6 µM in test [7].

Regarding `C=C(COC(C)=O)CC(/C=C(\C)CC/C=C(\C)CO)OC(C)=O` (stereo unspecified), the TGI in test [1], in [2], in test [3], in test [4] and in test [5] was more than 100 µM in each case.

For `CCCCN(CCCC)CC(C(=O)Nc1ccc([N+](=O)[O-])cc1[N+](=O)[O-])/C(C)=N\NC(=O)C[N+](C)(C)C` (stereo unspecified), the TGI in [1] is more than 100 µM; in [2], more than 100 µM; in test [3] it was more than 100 µM; in [4], more than 100 µM; in test [5], more than 100 µM; in test [6], 49.7 µM. In [7], this molecule had a TGI of more than 100 µM.

For `CC(=O)Oc1c(Br)ccc2cc(C(Br)Br)c(C(=O)c3ccccc3)nc12`, the TGI in [1] stood at 40.8 µM; in test [2] it was 40.1 µM; in [3], 46 µM; in [4] it was 36.1 µM; in test [5], 34.4 µM; in [6], 74.2 µM. The molecule further displayed a TGI in test [7] of 8.87 µM.

In the case of `CCOC(=O)/C(=C/c1ccccc1Br)P(=O)(OCC)OCC`, the TGI in test [1] turned out to be 2.95 µM; in test [2], 13.9 µM; in [3], 6.02 µM; in test [4], 4.66 µM; in test [5], 12 µM.

Turning to `COC(=O)c1nc(C(=O)OC)c2c([nH]c3ccccc32)c1C(=O)OC`, the TGI in test [1], in [2], in [3], in test [4], in test [5] and in test [6] was more than 100 µM in each case. The TGI in [7] was more than 100 µM.

As for `CC(=O)OCC1OC([Se-])C(OC(C)=O)C(OC(C)=O)C1OC(C)=O.N#CCC[PH+](CCC#N)CCC#N.[Au+]` (stereo unspecified), the GI50 in [1] is 3.63 µM; in test [2] it was 4.73 µM; in test [3], 21.3 µM; in test [4], 9.01 µM; in test [5] it was 25.2 µM; in [6], 3.06 µM. Moreover, in test [7], the GI50 is 5.93 µM. Also, the TGI was 18.3 µM in test [1]; 39.7 µM in test [2]; more than 100 µM in [3]; 60.5 µM in [4]; 68.8 µM in [5]; 13.7 µM in test [6]. In [7], this molecule yielded a TGI of 13.6 µM.

For `NC1=NC2=C(CCCC2)C(c2cccs2)S1` (stereo unspecified), the TGI in test [1], in test [2], in [3], in test [4], in test [5] and in [7] was more than 100 µM each time.

As to `N#Cc1c(-c2ccccc2)cc(-c2cccs2)c(C#N)c1N`, the TGI was more than 100 µM in [1]; more than 100 µM in test [2]; 55.2 µM in [3]; more than 100 µM in [5]; more than 100 µM in test [7].

As to `Cc1cc2c(cc1C)[n+](=O)c(C(=O)CC(=O)C(=O)Nc1ccccc1C(C)C)c(C)n2[O-]`, the TGI in [1], in test [2], in [3], in [4], in test [5] and in test [6] was more than 100 µM in each case. In test [7], this molecule came in with a TGI of 5.82 µM.

On to `COC1=CC(=O)OC(/C=C(C)/C=C/C2=C(C)CCCC2(C)C)C1` (stereo unspecified), for which the TGI in test [1], in [2], in [3], in [4], in test [5] and in [6] was more than 100 µM throughout. Also, the TGI in [7] was more than 100 µM.

Turning to `Fc1ccc(C2SCc3nc4ccccc4n32)cc1F` (stereo unspecified), the TGI in test [1] was 76.7 µM; in test [3], 56.9 µM; in test [4], 66.7 µM; in [5], more than 100 µM; in [7], more than 100 µM.

Consider `CC(=O)CC(=O)NC=O`, for which the TGI in test [1], in test [2], in test [3], in test [4], in test [5] and in test [6] was more than 100 µM each time. In test [7], this molecule had a TGI of more than 100 µM.

On to `O=C([O-])CCc1ccccc1.O=C([O-])CCc1ccccc1.O=C([O-])CCc1ccccc1.O=C([O-])CCc1ccccc1.[Mo+2].[Mo+2]`, for which the GI50 in test [1], in [2], in [4], in [6] and in test [7] was more than 100 µM each time. For the same molecule, the TGI in test [1], in test [2], in [4], in [6] and in test [7] was more than 100 µM throughout.

As to `C=C1c2[nH]c3ccccc3c2CC(C(=O)O)N1C(O)c1ccc(S(=O)(=O)O)cc1` (stereo unspecified), the TGI in test [1], in test [2], in test [3], in test [4], in test [5] and in [6] was more than 100 µM in each case. In [7], this molecule had a TGI of more than 100 µM.

With `O=C(N/C=C/C=C/Sc1ccccc1)OCc1ccccc1`, the TGI in [1] was 32.9 µM; in test [2], 31.9 µM; in test [3] it was 42.4 µM; in test [4], 34.3 µM; in [5], 49.2 µM; in test [6], more than 100 µM. In [7], this molecule returned a TGI of 39.5 µM.

Take `O=C(O)c1cn(C2CC2)c2cc(N3CCN(C(=O)Nc4nc(-c5ccc(Br)cc5)cs4)CC3)c(F)cc2c1=O`: the GI50 in test [1] is 2.24 µM; in test [2], 2.6 µM; in test [3], 0.715 µM; in test [4], 4.08 µM; in test [5] it was 4.34 µM; in [6], 0.454 µM. The GI50 in [8] was 3.48 µM; in test [9], more than 100 µM. Besides, the TGI in test [1], in [2], in test [3], in test [4], in [5] and in [6] was more than 100 µM in each case. Also, the TGI in test [8] and in [9] was more than 100 µM each time.

In the case of `CC(=O)N(CCN1C(=O)c2ccccc2C1=O)CCN1C(=O)c2ccccc2C1=O`, the TGI in test [1], in test [3], in test [4], in test [5], in test [6] and in test [7] was more than 100 µM in each case.

As to `O=C(/C=C/c1nnc2n(Cc3ccccc3)c(=O)c3c4c(sc3n12)CCCC4)c1ccccc1`, the TGI in test [1] was more than 100 µM; in test [3], 91.2 µM; in [5] it was more than 100 µM; in test [6], 0.658 µM; in test [8], 0.55 µM. The GI50 in [3] is 21.3 µM; in [6], 0.0522 µM and 0.217 µM; in test [8] it was 0.219 µM.

`O=C1C(=C([O-])c2ccccc2)C(=O)c2ccccc21.O=C1C(=C([O-])c2ccccc2)C(=O)c2ccccc21.[Co+2]`: the GI50 in test [1] was more than 100 µM; in [2], more than 100 µM; in [3], more than 100 µM; in test [4] it was more than 100 µM; in test [5], more than 100 µM; in [7] it was 90.8 µM. In addition, the TGI in [1], in test [2], in test [3], in [4], in test [5] and in [7] was more than 100 µM each time.

As to `NC(CO)c1ccc(OCc2ccccc2)cc1` (stereo unspecified), the TGI in test [1] is more than 100 µM; in [2], more than 100 µM; in [3], 98.9 µM; in test [4], more than 100 µM; in test [5], more than 100 µM; in test [6], 81.5 µM. The TGI in test [7] is more than 100 µM.

On to `NC(=S)N/N=C(\CCC(=O)Nc1ccccc1[N+](=O)[O-])CC(=O)c1ccco1`, for which the TGI in [1], in test [2], in test [3], in test [4], in test [5] and in test [6] was more than 100 µM in each case. In test [7], this molecule came in with a TGI of more than 100 µM.

Turning to `O=c1c(O)cc2c(O)oc3c(=O)c(O)c(O)c4c(O)oc1c2c43`, the TGI in test [1], in [2], in test [3], in test [4], in test [5] and in test [6] was more than 100 µM in each case. This molecule yielded a TGI in [7] of more than 100 µM.

For `C=CCC12CCC(=O)[C@@]1(C)CC=C(O)C2=O` (stereo partly specified), the TGI in test [1], in test [2], in test [3], in test [4], in test [5] and in [6] was more than 100 µM each time. For the same molecule, in test [7], the TGI is more than 100 µM.

Regarding `Cn1c2cc([N+](=O)[O-])ccc2c(=O)c2c(O)cc3c(c21)C=CC(C)(C)O3`, the TGI in test [1] is more than 100 µM; in test [2] it was more than 100 µM; in [3], 25.7 µM; in test [4], more than 100 µM; in [7], more than 100 µM.
